Measurements from US7417053B2, “Pyrazolo[1,5-a]pyridine derivatives or pharmaceutically acceptable salts thereof” (Teijin Pharma Limited, priority 2005, dated 2008).
Structures can show the parent of a compound that is named as a salt.

The compounds below were run against recombinant human MAPKAP-K2 (Homo sapiens, UniProt P49137) (assay: Inhibitory activity against MAPKAP-K2 enzyme (33P-ATP peptide phosphorylation)). Conditions: recombinant human MAPKAP-K2, ATP 20 μmol/L solution, room temperature 30 min; read-out: Activity Strength (MAPKAP-K2 IC50 value).
Assay type: biochemical
Method: General Measurement Method for Determining the Inhibitory Activity Against MAPKAP-K2 enzyme
(Preparation of Solutions of Compounds)
Each compound was dissolved in DMSO to prepare a solution with a concentration of 20 mmol/L and this solution was stored at −20° C. This stock solution was diluted with DMSO successively to prepare solutions with 200-fold concentrations of a necessary range. These solutions were further diluted with water at a ratio of 1:20 to prepare solutions with 10-fold concentrations of a necessary range. Each of these solutions (5 μL) was used for each reaction in 50 μL-scale. Through the dilution series of all compounds, the final DMSO concentration was kept at 0.5%. Conventional tests for the compounds were carried out at a final concentration range from 100 μmol/L to 0.03 μmol/L. but in some cases, tests were carried out at lower concentrations, depending on activity.
(Measurements of MAPKAP-K2 Enzyme Activities)
To a 5% DMSO aqueous solution (5 μL) of a test compound, a solution (25 μL) containing a peptide substrate [peptide substrate 60 μmol/L, ATP 20 μmol/L, Tris buffer 60 mmol/L (pH 7.5), EGTA 0.2 mmol/L, β-mercaptoethanol 0.2%, magnesium acetate 20 mmol/L, [γ-33P]ATP 0.1 μCi (specific radioactivity ca. 110 TBq/mmol)] was added. The reaction was initiated by adding a solution (20 μL) containing MAPKAP-K2 enzyme [recombinant human MAPKAP-K2 10 mU, Tris buffer […] (pH 7.5), EGTA 0.1 mmol/L, β-mercaptoethanol 0.1%, BSA 0.1%]. After the reaction was carried out at room temperature for 30 min, 200 mmol/L phosphoric acid (50 μL) was added to quench the reaction, and 90 μL of the reaction mixture was adsorbed on a multiscreen PH plate (Millipore). The plate was washed with 100 mmol/L phosphoric acid. After the plate was dried, 30 μL of MicroScint-O (Perkin-Elmer) was added, and the count per minute was measured on a scintillation counter to determine the inhibitory activity. The peptide substrate was Lys-Lys-Leu-Asn-Arg-Thr-Leu-Ser-Val-Ala.
• % Reference=(X−B)/(Tot−B)×100 • % Inhibition=100−% Reference • X represents count per minute of the well with a test compound applied. • B represents count per minute of the well without the enzyme. • Tot represents count per minute of the well with only DMSO solvent and no test compound applied. (Calculation of MAPKAP-K2 Inhibitory Activity) • IC50 value represents a concentration of compound at which 50% inhibition is observed.

Chain of recombinant human MAPKAP-K2 (P49137 whole entry): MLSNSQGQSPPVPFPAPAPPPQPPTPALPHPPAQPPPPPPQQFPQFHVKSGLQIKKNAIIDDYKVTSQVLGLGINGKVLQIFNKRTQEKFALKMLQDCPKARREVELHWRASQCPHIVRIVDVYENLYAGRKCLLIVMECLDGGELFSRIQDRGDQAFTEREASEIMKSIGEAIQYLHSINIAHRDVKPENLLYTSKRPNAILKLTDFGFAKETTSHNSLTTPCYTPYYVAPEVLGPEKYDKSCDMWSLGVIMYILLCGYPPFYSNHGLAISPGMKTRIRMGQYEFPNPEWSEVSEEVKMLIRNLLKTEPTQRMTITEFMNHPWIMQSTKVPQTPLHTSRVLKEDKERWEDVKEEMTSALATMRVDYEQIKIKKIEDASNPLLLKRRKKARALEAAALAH

| IC50 | Compound |
| --- | --- |
| 200 to 1000 nM | COc1ccccc1Nc1cc(N[C@H]2CC[C@H](N)CC2)c(C#N)c2ccnn12 [Compound 98, 5-(trans-4-Aminocyclohexylamino)-7-(2-methoxyphenylamino)pyrazolo[1,5-a]pyridine-4-carbonitrile trifluoroacetate salt] |
| 10000 to 100000 nM | CCOc1ccc(Nc2c(C)c(NCCC3CCCN3C)c(C#N)c3ccnn23)cc1 (centres unmarked) [Compound 133, 7-[(4-Ethoxyphenyl)amino]-6-methyl-5-{[2-(1-methylpyrrolidin-2-yl)ethyl]amino}pyrazolo[1,5-a]pyridine-4-carbonitrile trifluoroacetate salt] |
| 1000 to 10000 nM | CCOc1ccc(Nc2c(C)c(NCCC3CCCN3)c(C#N)c3ccnn23)cc1 (centres unmarked) [Compound 129, 7-[1(4-Ethoxyphenyl)amino]-6-methyl-5-[2-(pyrrolidin-2-ylethyl)amino]pyrazolo[1,5-a]pyridine-4-carbonitrile trifluoroacetate salt] |
| < 200 nM | CCOc1ccc(Nc2c(CCO)c(N[C@H]3CCCNC3)c(C#N)c3ccnn23)cc1 [Compound 90, 5-[(3S)-3-Piperidylamino]-7-(4-ethoxyphenylamino)-6-(2-hydroxyethyl)pyrazolo[1,5-a]pyridine-4-carbonitrile] |
| 200 to 1000 nM | COCCOc1ccc(Nc2c(C)c(N[C@H]3CCNC3)c(C#N)c3ccnn23)cc1 [Compound 88, 5-[(3S)-3-Pyrrolidylamino]-7-[4-(2-methoxyethoxy)phenylamino]-6-methylpyrazolo[1,5-a]pyridine-4-carbonitrile trifluoroacetate salt] |
| 200 to 1000 nM | CCOc1ccc(Nc2c(C)c(NC3CCNCC3)c(C#N)c3ccnn23)cc1 [Compound 103, 7-(4-Ethoxyphenylamino)-6-methyl-5-(4-pyperidylamino)pyrazolo[1,5-a]pyridine-4-carbonitrile trifluoroacetate salt] |
| 200 to 1000 nM | CCOc1ccc(Nc2c(C)c(N[C@H]3CC[C@H](NCc4ccccc4)CC3)c(C#N)c3ccnn23)cc1 [Compound 115, 7-[(4-Ethoxyphenyl)amino]-6-methyl-5-[trans-{4-(benzylamino)cyclohexyl]amino}pyrazolo[1,5-a]pyridine-4-carbonitrile trifluoroacetate salt] |
| 1000 to 10000 nM | CCOc1ccc(Nc2c(C)c(NCC3CCCN3)c(C#N)c3ccnn23)cc1 (centres unmarked) [Compound 114, 7-[(4-Ethoxyphenyl)amino]-6-methyl-5-[(pyrrolidin-2-ylmethyl)amino]pyrazolo[1,5-a]pyridine-4-carbonitrile trifluoroacetate salt] |
| 200 to 1000 nM | CCOc1ccc(Nc2c(C)c(NCCN)c(C#N)c3ccnn23)cc1 [Compound 106, 5-[(2-Aminoethyl)amino]-7-[(4-ethoxyphenyl)amino]-6-methylpyrazolo[1,5-a]pyridine-4-carbonitrile trifluoroacetate salt] |
| < 200 nM | CCOc1ccc(Nc2c(CC)c(N[C@H]3CCCNC3)c(C#N)c3ccnn23)cc1 [Compound 105, 5-[(3S)-3-Piperidylamino]-7-(4-ethoxyphenylamino)-6-ethylpyrazolo [1,5-a]pyridine-4-carbonitrile] |
| 1000 to 10000 nM | CCOc1ccc(Nc2c(C)c(NCC3CCNC3)c(C#N)c3ccnn23)cc1 (centres unmarked) [Compound 112, 7-[(4-Ethoxyphenyl)amino]-6-methyl-5-[(pyrrolidin-3-ylmethyl)amino]pyarzolo[1,5-a]pyridine-4-carbonitrile trifluoroacetate salt] |
| < 200 nM | CCc1nc2ccc(Nc3c(C)c(N[C@H]4CCCNC4)c(C#N)c4ccnn34)cc2s1 [Compound 118, 5-[((3S)-3-Piperidyl)amino]-7-[(2-ethylbenzothiazol-6-yl)amino]-6-methylpyrazolo[1,5-a]pyridine-4-carbonitrile trifluoroacetate salt] |
| 1000 to 10000 nM | CSc1ccccc1Nc1cc(N[C@H]2CC[C@H](N)CC2)c(C#N)c2ccnn12 [Compound 99, 5-(trans-4-Aminocyclohexylamino)-7-(2-methylthiophenylamino)pyrazolo[1,5-a]pyridine-4-carbonitrile trifluoroacetate salt] |
| 1000 to 10000 nM | CCOc1ccc(Nc2c(C)c(NC3CNCc4ccccc43)c(C#N)c3ccnn23)cc1 (centres unmarked) [Compound 127, 7-[(4-Ethoxyphenyl)amino]-6-methyl-5-[4-(1,2,3,4-tetrahydroisoquinolyl)amino]pyrazolo[1,5-a]pyridine-4-carbonitrile trifluoroacetate salt] |
| 200 to 1000 nM | N#Cc1c(N[C@H]2CC[C@H](N)CC2)cc(Nc2ccccc2Cl)n2nccc12 [Compound 94, 5-(trans-4-Aminocyclohexylamino)-7-(2-chlorophenylamino)pyrazolo[1,5-a]pyridine-4-carbonitrile trifluoroacetate salt] |
| < 200 nM | Cc1c(N[C@H]2CCCNC2)c(C#N)c2ccnn2c1Nc1ccccc1 [Compound 111, 5-[((3S)-(3-Piperidyl))amino]-6-methyl-7-(phenylamino)pyrazolo[1,5-a]pyridine-4-carbonitrile trifluoroacetate salt] |
| < 200 nM | CCOc1ccc(Nc2c(C3CC3)c(N[C@H]3CC[C@H](N)CC3)c(C#N)c3ccnn23)cc1 [Compound 131, 5-(trans-4-Amionocyclohexylamino)-7-(4-ethoxyphenylamino)-6-cyclopropylpyrazolo[1,5-a]pyridine-4-carbonitrile] |
| < 200 nM | CCOc1ccc(Nc2c(C)c(N[C@H]3CCCNC3)c(C#N)c3ccnn23)cc1 [Compound 85, 5-[(3S)-3-piperidylamino]-7-(4-ethoxyphenylamino)-6-methylpyrazolo[1,5-a]pyridine-4-carbonitrile] |
| < 200 nM | Cc1nc2ccc(Nc3c(C)c(N[C@H]4CCCNC4)c(C#N)c4ccnn34)cc2s1 [Compound 91, 5-[(3S)-3-Piperidylamino]-7-(2-methylbenzothiazol-6-ylamino)-6-methylpyrazolo[1,5-a]pyridine-4-carbonitrile] |
| < 200 nM | CCOc1ccc(Nc2c(C)c(N[C@H]3CC[C@H](NCC(C)C)CC3)c(C#N)c3ccnn23)cc1 [Compound 110, 7-[(4-Ethoxyphenyl)amino]-6-methyl-5-(trans-{4-[(2-methylpropyl)amino]cyclohexyl}amino)pyrazolo[1,5-a]pyridine-4-carbonitrile trifluoroacetate salt] |
| 200 to 1000 nM | N#Cc1c(N[C@H]2CCCNC2)cc(Nc2ccc(-c3ccccc3)cc2)n2nccc12 [Compound 100, 5-[(3S)-3-Piperidylamino]-7-(4-biphenylylamino)pyrazolo[1,5-a]pyridine-4-carbonitrile trifluoroacetate salt] |
| < 200 nM | CCOc1ccc(Nc2c(C)c(N[C@H]3CC[C@H](N)CC3)c(C#N)c3ccnn23)cc1 [Compound 102, 5-[(trans-4-Aminocyclohexyl)amino]-7-(4-ethoxyphenylamino)-6-methylpyrazolo[1,5-a]pyridine-4-carbonitrile trifluoroacetate salt] |
| < 200 nM | CCCc1c(N[C@H]2CCCNC2)c(C#N)c2ccnn2c1Nc1ccc(OCC)cc1 [Compound 121, 5-[(3S)-3-Piperidylamino]-7-(4-ethoxyphenylamino)-6-propylpyrazolo[1,5-a]pyridine-4-carbonitrile] |
| < 200 nM | CCOc1ccc(Nc2c(CC)c(N[C@H]3CC[C@H](N)CC3)c(C#N)c3ccnn23)cc1 [Compound 109, 5-(trans-4-Aminocyclohexylamino)-7-(4-ethoxyphenylamino)-6-ethylpyrazolo[1,5-a]pyridine-4-carbonitrile] |
| 200 to 1000 nM | CCOc1ccc(Nc2cc(N[C@H]3CCCNC3)c(C#N)c3ccnn23)cc1 [Compound 92, 5-[(3S)-3-Piperidylamino]-7-(4-ethoxyphenylamino)pyrazolo[1,5-a]pyridine-4-carbonitrile trifluoroacetate salt] |
| 200 to 1000 nM | CCOc1ccc(Nc2c(-c3ccccc3)c(NC3CCCNC3)c(C#N)c3ccnn23)cc1 (centres unmarked) [Compound 95, 5-(3-Piperidylamino)-7-(4-ethoxyphenylamino)-6-phenylpyrazolo[1,5-a]pyridine-4-carbonitrile trifluoroacetate salt] |
